Earlier results as cited in patent US20210205766A1, “METHODS AND RELATED APPARATUS FOR PROVIDING A PROCESSING SOLUTION FOR A FOOD PROCESSING APPLICATION” (Zee Company, Inc., priority 2016, published 2021).

Settings: about half active (free), about half dissociated (bound) at pH of about 8.4

In the case of peroxyacetic acid [PAA], the pKA is listed as “about 8.4”.
